Test results from patent publication EP4717694A1, “PYRAZOLFORMYL PIPERAZINONE COMPOUND, PHARMACEUTICAL COMPOSITION AND USE THEREOF” (Iregene Therapeutics Co., Ltd., priority 2023, dated 2024).

How the values were obtained:
Experiment in all cases: CCK-8 cell viability assay
Assay type in all cases: cell-based
H9 = tested on: H9
Procedure: (§1) Tumor cells OVCAR3 (ovarian cancer), HeLa ([…]), U251 (glioma), H9 cells, and non-tumor HEK293 cells were cultured in DMEM/F12 medium supplemented with 10% FBS and 1% P/S. When cells reached 70% confluency, they were digested with 0.25% Trypsin at 37°C for 2-3 minutes, and digestion was stopped with DMEM/F12 medium. Cell suspensions were collected in 15 mL centrifuge tubes, centrifuged at 1000 rpm for 5 minutes, the supernatant was discarded, and cells were resuspended in DMEM/F12 medium with 10% FBS and 1% P/S. Cells were counted using a hemocytometer, and based on the counts, they were resuspended to the desired concentration. Tumor cells were seeded in 96-well plates at 1×10^4 cells per well, 100 µL per well. From day 1 to day 7 after seeding, cells were treated with compound II-1 at 0 µM, 10 µM, 30 µM, and 50 µM (the pyrazolecarbonyl piperazinone compounds were diluted to 10 µM, 30 µM, and 50 µM with DMEM + 10% FBS). Each concentration was tested in triplicate wells.
(§2) Cell viability on days 1, 3, 5, and 7 was determined using the CCK-8 cell proliferation/cytotoxicity assay kit (Vazyme, A311-02) by measuring absorbance at OD450 nm, with wells containing only medium and CCK-8 solution as blank controls. Each concentration was measured in triplicate.
(§3) Calculation of cell survival rate: For the same cell type at the same time point, the absorbance of cells not treated with compound II-1 was set as 100% baseline. For cells treated with different concentrations, the absorbance was compared with the control group (CK) to calculate the relative proportion. For example, the survival rate of H9 cells on day 4 treated with 30 µM of the small molecule compound was calculated as follows: [OD(D4)30μMiPS]/[OD(D4)0μMH9] × 100% [formula] Table 2. Cell survival rates of various cell types after treatment with different concentrations of compound II-1 measured by CCK-8 assay

HEK293 = tested on: HEK293
Procedure: as §1, §2, §3

Hela = tested on: Hela
Procedure: as §1, §2, §3

OVCAR3 = tested on: OVCAR3
Procedure: as §1, §2, §3

U251 = tested on: U251
Procedure: as §1, §2, §3

Compound: O=C1CN(C(=O)c2n[nH]c3c2CCC3)[C@H]2CCCC[C@@H]2N1 [II-1, (4aS,8aS)-4-(1,4,5,6-tetrahydrocyclopenta[c]pyrazole-3-carbonyl)octahydroquinoxalin-2(1H)-one]
- Cell survival rate (H9; H9, II-1 10 µM, Day 1 Treatment): 90.37%
- Cell survival rate (H9; H9, II-1 10 µM, Day 3 Treatment): 92.91%
- Cell survival rate (H9; H9, II-1 10 µM, Day 5 Treatment): 84.84%
- Cell survival rate (H9; H9, II-1 10 µM, Day 7 Treatment): 83.47%
- Cell survival rate (H9; H9, II-1 30 µM, Day 1 Treatment): 84.96%
- Cell survival rate (H9; H9, II-1 30 µM, Day 3 Treatment): 86.01%
- Cell survival rate (H9; H9, II-1 30 µM, Day 5 Treatment): 80.25%
- Cell survival rate (H9; H9, II-1 30 µM, Day 7 Treatment): 78.71%
- Cell survival rate (H9; H9, II-1 50 µM, Day 1 Treatment): 76.96%
- Cell survival rate (H9; H9, II-1 50 µM, Day 3 Treatment): 73.87%
- Cell survival rate (H9; H9, II-1 50 µM, Day 5 Treatment): 69.10%
- Cell survival rate (H9; H9, II-1 50 µM, Day 7 Treatment): 65.98%
- cell viability, course with time and concentration (H9; H9, II-1 10-50 µM, days 1-7): gradual decline in viability
- Cell survival rate (HEK293; HEK293, II-1 10 µM, Day 1 Treatment): 96.09%
- Cell survival rate (HEK293; HEK293, II-1 10 µM, Day 3 Treatment): 96.67%
- Cell survival rate (HEK293; HEK293, II-1 10 µM, Day 5 Treatment): 98.80%
- Cell survival rate (HEK293; HEK293, II-1 10 µM, Day 7 Treatment): 99.24%
- Cell survival rate (HEK293; HEK293, II-1 30 µM, Day 1 Treatment): 93.69%
- Cell survival rate (HEK293; HEK293, II-1 30 µM, Day 3 Treatment): 94.14%
- Cell survival rate (HEK293; HEK293, II-1 30 µM, Day 5 Treatment): 94.39%
- Cell survival rate (HEK293; HEK293, II-1 30 µM, Day 7 Treatment): 94.97%
- Cell survival rate (HEK293; HEK293, II-1 50 µM, Day 1 Treatment): 80.80%
- Cell survival rate (HEK293; HEK293, II-1 50 µM, Day 3 Treatment): 90.72%
- Cell survival rate (HEK293; HEK293, II-1 50 µM, Day 5 Treatment): 92.46%
- Cell survival rate (HEK293; HEK293, II-1 50 µM, Day 7 Treatment): 93.56%
- cell viability, course with time and concentration (HEK293; non-tumor HEK293, II-1 10-50 µM, days 1-7): did not show significant changes
- Cell survival rate (Hela; II-1 10 µM, Day 1 Treatment): 103.32%
- Cell survival rate (Hela; II-1 10 µM, Day 3 Treatment): 98.58%
- Cell survival rate (Hela; II-1 10 µM, Day 5 Treatment): 97.35%
- Cell survival rate (Hela; II-1 10 µM, Day 7 Treatment): 97.27%
- Cell survival rate (Hela; II-1 30 µM, Day 1 Treatment): 100.64%
- Cell survival rate (Hela; II-1 30 µM, Day 3 Treatment): 93.45%
- Cell survival rate (Hela; II-1 30 µM, Day 5 Treatment): 90.71%
- Cell survival rate (Hela; II-1 30 µM, Day 7 Treatment): 85.04%
- Cell survival rate (Hela; II-1 50 µM, Day 1 Treatment): 88.66%
- Cell survival rate (Hela; II-1 50 µM, Day 3 Treatment): 81.80%
- Cell survival rate (Hela; II-1 50 µM, Day 5 Treatment): 80.31%
- Cell survival rate (Hela; II-1 50 µM, Day 7 Treatment): 75.83%
- cell viability, course with time and concentration (Hela; II-1 10-50 µM, days 1-7): gradual decrease in cell viability over time
- Cell survival rate (OVCAR3; OVCAR3, II-1 10 µM, Day 1 Treatment): 95.05%
- Cell survival rate (OVCAR3; OVCAR3, II-1 10 µM, Day 3 Treatment): 98.06%
- Cell survival rate (OVCAR3; OVCAR3, II-1 10 µM, Day 5 Treatment): 96.19%
- Cell survival rate (OVCAR3; OVCAR3, II-1 10 µM, Day 7 Treatment): 97.99%
- Cell survival rate (OVCAR3; OVCAR3, II-1 30 µM, Day 1 Treatment): 89.67%
- Cell survival rate (OVCAR3; OVCAR3, II-1 30 µM, Day 3 Treatment): 94.18%
- Cell survival rate (OVCAR3; OVCAR3, II-1 30 µM, Day 5 Treatment): 92.35%
- Cell survival rate (OVCAR3; OVCAR3, II-1 30 µM, Day 7 Treatment): 90.98%
- Cell survival rate (OVCAR3; OVCAR3, II-1 50 µM, Day 1 Treatment): 88.56%
- Cell survival rate (OVCAR3; OVCAR3, II-1 50 µM, Day 3 Treatment): 90.37%
- Cell survival rate (OVCAR3; OVCAR3, II-1 50 µM, Day 5 Treatment): 85.37%
- Cell survival rate (OVCAR3; OVCAR3, II-1 50 µM, Day 7 Treatment): 80.83%
- cell viability, course with time and concentration (OVCAR3; OVCAR3, II-1 10-50 µM, days 1-7): gradual decrease in cell viability over time
- Cell survival rate (U251; U251, II-1 10 µM, Day 1 Treatment): 100.75%
- Cell survival rate (U251; U251, II-1 10 µM, Day 3 Treatment): 98.96%
- Cell survival rate (U251; U251, II-1 10 µM, Day 5 Treatment): 95.19%
- Cell survival rate (U251; U251, II-1 10 µM, Day 7 Treatment): 94.74%
- Cell survival rate (U251; U251, II-1 30 µM, Day 1 Treatment): 99.49%
- Cell survival rate (U251; U251, II-1 30 µM, Day 3 Treatment): 87.01%
- Cell survival rate (U251; U251, II-1 30 µM, Day 5 Treatment): 79.39%
- Cell survival rate (U251; U251, II-1 30 µM, Day 7 Treatment): 74.00%
- Cell survival rate (U251; U251, II-1 50 µM, Day 1 Treatment): 98.61%
- Cell survival rate (U251; U251, II-1 50 µM, Day 3 Treatment): 85.27%
- Cell survival rate (U251; U251, II-1 50 µM, Day 5 Treatment): 70.43%
- Cell survival rate (U251; U251, II-1 50 µM, Day 7 Treatment): 63.89%
- cell viability, course with time and concentration (U251; U251, II-1 10-50 µM, days 1-7): gradual decrease in cell viability over time
